Patent publication US20120022040A1, “ANTIMICROBIALS” (priority 2008, published 2012)
In brackets after ≈: the same amount, converted by molar mass.

Columns and labels:
[1] = test system: VSE 6569; assay: IC50 determination (XlFit dose response model 200); format: cell-based, Vancomycin-sensitive enterococci faecium; conditions: average of 3 replicates
Experimental: (§1) Compounds (1), (2), and (3) were tested to determine IC50 values. IC50 was determined using XlFit add-in using dose response model 200. The average of 3 replicates is presented for each compound in Table 2.

[2] = test system: VSE 49452; assay: IC50 determination (XlFit dose response model 200); format: cell-based, Vancomycin-sensitive enterococci faecium; conditions: average of 3 replicates
Experimental: as §1

[3] = test system: Kleb 4352; assay: IC50 determination (XlFit dose response model 200); format: cell-based, Klebsiella pneumonia; conditions: Klebsiella pneumoniae, average of 3 replicates
Experimental: as §1

[4] = test system: EC 25922; assay: IC50 determination (XlFit dose response model 200); format: cell-based; conditions: Escherichia coli, average of 3 replicates
Experimental: as §1

[5] = test system: PA 27853; assay: IC50 determination (XlFit dose response model 200); format: cell-based; conditions: Pseudomonas aeruginosa, average of 3 replicates
Experimental: as §1

[6] = test system: SA 29213; assay: IC50 determination (XlFit dose response model 200); format: cell-based; conditions: Staphylococcus aureus, average of 3 replicates
Experimental: as §1

[7] = test system: VSE 6569; assay: MIC90 determination by serial dilution; format: cell-based, Vancomycin-sensitive enterococci faecium; conditions: dilution series from the Max Conc.
Experimental: (§2) Compounds (1), (2), and (3) were tested to determine MIC90 values.
(§3) Rules for determining MIC values: Each extract has a starting concentration which is diluted 7 times for a total of 8 dilutions. The MIC is the lowest dilution without growth. Each serial dilution is repeated three times for three identical dilutions. For reporting the results, the following rules were used. Inconsistent values were thrown out. For instance, the MIC value reported for an extract with MIC readings of 4, 4, and 2 would be four (the 2 is thrown out). If the readings are all different and in series like 2, 4, and 8, the median MIC value of 4 would be reported. If the three values are all different and not in series, an error is reported. Besides the three identical dilutions at the same starting concentration, each extract has dilutions starting at three different concentrations: 64, 4, and 0.25 μg/mL. Each extract therefore has 3 identical dilution series at 3 different starting concentrations—a total of 24 dilutions. The dilutions overlap which can result in a disagreement in MIC values for two different starting dilutions. Since a small amount of error is introduced with each dilution, the MIC readings with the fewest dilutions are selected as the correct MIC values.
(§4) Abbreviations: MRSA=methicillin-resistant Staphylococcus aureus; SA=Staphylococcus aureus; PA=Pseudomonas aeruginosa; Kleb=Klebsiella pneumonia; EC=Escherichia coli; VSE=Vancomycin-sensitive enterococci faecium.

[8] = test system: VSE 49452; assay: MIC90 determination by serial dilution; format: cell-based, Vancomycin-sensitive enterococci faecium; conditions: dilution series from the Max Conc.
Experimental: as §2, §3, §4

[9] = test system: EC 25922; assay: MIC90 determination by serial dilution; format: cell-based; conditions: Escherichia coli, dilution series from the Max Conc.
Experimental: as §2, §3, §4

[10] = test system: PA 27853; assay: MIC90 determination by serial dilution; format: cell-based; conditions: Pseudomonas aeruginosa, dilution series from the Max Conc.
Experimental: as §2, §3, §4

[11] = test system: SA 29213; assay: MIC90 determination by serial dilution; format: cell-based; conditions: Staphylococcus aureus, dilution series from the Max Conc.
Experimental: as §2, §3, §4

[12] = test system: Kleb 4352; assay: MIC90 determination by serial dilution; format: cell-based, Klebsiella pneumonia; conditions: Klebsiella pneumoniae, dilution series from the Max Conc.
Experimental: as §2, §3, §4

[13] = test system: MRSA 43300; assay: IC50 determination (XlFit dose response model 200); format: cell-based, methicillin-resistant Staphylococcus aureus; conditions: Staphylococcus aureus, average of 3 replicates
Experimental: as §1

[14] = test system: MRSA 43300; assay: MIC90 determination by serial dilution; format: cell-based, methicillin-resistant Staphylococcus aureus; conditions: Staphylococcus aureus, dilution series from the Max Conc.
Experimental: as §2, §3, §4

Row | IC50 [1] | IC50 [2] | IC50 [3] | IC50 [4] | IC50 [5] | IC50 [6] | MIC90 [7] | MIC90 [8] | MIC90 [9] | MIC90 [10] | MIC90 [11] | MIC90 [12] | IC50 [13] | MIC90 [14] | Structure (SMILES)
1 |  |  |  |  | 6.3 µg/mL (≈ 14.2 µM) |  |  |  |  | 32 µg/mL (≈ 72 µM) |  |  |  |  | C[C@H]1c2cccc(O)c2C(=O)C2=C(O)[C@]3(O)C(=O)C(C(N)=O)=C(O)[C@@H](N(C)C)[C@@H]3[C@@H](O)[C@@H]21 [Doxycycline]
2 | 2.75 µg/mL (≈ 3.75 µM) | < 2 µg/mL | 2.21 µg/mL (≈ 3.01 µM) | 20.7 µg/mL (≈ 28.2 µM) | > 64 µg/mL | < 2 µg/mL | 8 µg/mL (≈ 10.9 µM) | ≤ 2 µg/mL | 64 µg/mL (≈ 87.2 µM) | > 64 µg/mL | ≤ 2 µg/mL | 8 µg/mL (≈ 10.9 µM) | > 64 µg/mL | > 64 µg/mL | CC[C@H]1OC(=O)[C@H](C)[C@@H](O[C@H]2C[C@@](C)(OC)[C@@H](O)[C@H](C)O2)[C@H](C)[C@@H](O[C@@H]2O[C@H](C)C[C@H](N(C)C)[C@H]2O)[C@](C)(O)C[C@@H](C)C(=O)[C@H](C)[C@@H](O)[C@]1(C)O [Erythromycin]
3 | 11.8 µg/mL (≈ 30.8 µM) | 6.74 µg/mL (≈ 17.6 µM) | 0.121 µg/mL (≈ 0.316 µM) | 0.122 µg/mL (≈ 0.318 µM) | 0.945 µg/mL (≈ 2.46 µM) | 0.126 µg/mL (≈ 0.329 µM) | 32 µg/mL (≈ 83.4 µM) | 16 µg/mL (≈ 41.7 µM) | 0.06 µg/mL (≈ 0.156 µM) | 1 µg/mL (≈ 2.61 µM) | 0.25 µg/mL (≈ 0.652 µM) | 0.12 µg/mL (≈ 0.313 µM) | 0.037 µg/mL (≈ 0.0965 µM) | 4 µg/mL (≈ 10.4 µM) | C[C@@H](O)[C@H]1C(=O)N2C(C(=O)O)=C(S[C@@H]3CN[C@H](C(=O)N(C)C)C3)[C@H](C)[C@H]12 [Meropenem, meropenem, reference compound]

Continued, compound first:

Row | Structure (SMILES) | IC50 [1] | IC50 [2] | IC50 [3] | IC50 [4] | IC50 [5] | IC50 [6] | MIC90 [7] | MIC90 [8] | MIC90 [9] | MIC90 [10] | MIC90 [11] | MIC90 [12] | IC50 [13] | MIC90 [14]
4 | CCC(C)(C)C(=O)C(=O)N1CCCC[C@H]1C(=O)O[C@H](CCc1ccc(OC)c(OC)c1)c1cccc(OCCNC(=O)c2cccc(NC(=O)[C@@H]3C[C@H](SC4=C(C(=O)O)N5C(=O)[C@H]([C@@H](C)O)[C@H]5[C@H]4C)CN3)c2)c1 [(1), (4R,5S,6S)-3-((3S,5S)-5-(3-(2-(3-((R)-3-(3,4-dimethoxyphenyl)-1-((S)-1-(3,3-dimethyl-2-oxopentanoyl)piperidine-2-carbonyloxy)propyl)phenoxy)ethylcarbamoyl)phenylcarbamoyl)pyrrolidin-3-ylthio)-6-((R)-1-hydroxyethyl)-4-methyl-7-oxo-1-azabicyclo[3.2.0]hept-2-ene-2-carboxylic acid] | 15.2 µg/mL (≈ 14.8 µM) | 6.91 µg/mL (≈ 6.73 µM) | > 64 µg/mL | > 64 µg/mL | > 64 µg/mL | 0.942 µg/mL (≈ 0.918 µM) | 64 µg/mL (≈ 62.4 µM) | 16 µg/mL (≈ 15.6 µM) | > 64 µg/mL | > 64 µg/mL | 2 µg/mL (≈ 1.95 µM) | > 64 µg/mL | 0.265 µg/mL (≈ 0.258 µM) | 8 µg/mL (≈ 7.8 µM)
5 | CCC(C)(C)C(=O)C(=O)N1CCCC[C@H]1C(=O)O[C@H](CCc1ccc(OC)c(OC)c1)c1cccc(OCC(=O)NCCCCCN2C[C@@H](SC3=C(C(=O)O)N4C(=O)[C@H]([C@@H](C)O)[C@H]4[C@H]3C)C[C@H]2C(=O)N(C)C)c1 [(2), (4R,5S,6S)-3-((3S,5S)-1-(5-(2-(3-((R)-3-(3,4-dimethoxyphenyl)-1-((S)-1-(3,3-dimethyl-2-oxopentanoyl)piperidine-2-carbonyloxy)propyl)phenoxy)acetamido)pentyl)-5-(dimethylcarbamoyl)pyrrolidin-3-ylthio)-6-((R)-1-hydroxyethyl)-4-methyl-7-oxo-1-azabicyclo[3.2.0]hept-2-ene-2-carboxylic acid] | 7.23 µg/mL (≈ 6.99 µM) | 1.6 µg/mL (≈ 1.55 µM) | > 64 µg/mL | > 64 µg/mL | > 64 µg/mL | 0.871 µg/mL (≈ 0.842 µM) | 32 µg/mL (≈ 30.9 µM) | 16 µg/mL (≈ 15.5 µM) | > 64 µg/mL | > 64 µg/mL | 2 µg/mL (≈ 1.93 µM) | > 64 µg/mL | 0.17 µg/mL (≈ 0.164 µM) | 8 µg/mL (≈ 7.73 µM)
6 | NCC[C@H](O)C(=O)N[C@@H]1C[C@H](N)[C@@H](O[C@H]2O[C@H](CN)[C@@H](O)[C@H](O)[C@H]2O)[C@H](O)[C@H]1O[C@H]1O[C@H](CO)[C@@H](O)[C@H](N)[C@H]1O [Amikacin] |  |  |  |  | 0.274 µg/mL (≈ 0.468 µM) |  |  |  |  | 1 µg/mL (≈ 1.71 µM) |  |  |  | 
7 | O=C(N[C@H](CO)[C@H](O)c1ccc([N+](=O)[O-])cc1)C(Cl)Cl [Chloramphenicol] | < 2 µg/mL | < 2 µg/mL | > 64 µg/mL | < 2 µg/mL | > 64 µg/mL | > 64 µg/mL | ≤ 2 µg/mL | 4 µg/mL (≈ 12.4 µM) | 8 µg/mL (≈ 24.8 µM) | > 64 µg/mL | 8 µg/mL (≈ 24.8 µM) | ≤ 2 µg/mL | < 2 µg/mL | 4 µg/mL (≈ 12.4 µM)
8 | O=C1CN(/N=C/c2ccc([N+](=O)[O-])o2)C(=O)N1 [Nitrofurantoin] | 2.87 µg/mL (≈ 12.1 µM) | 3.57 µg/mL (≈ 15 µM) | 3.68 µg/mL (≈ 15.4 µM) | 3.27 µg/mL (≈ 13.7 µM) | > 32 µg/mL | 7.71 µg/mL (≈ 32.4 µM) | 32 µg/mL (≈ 134 µM) | 8 µg/mL (≈ 33.6 µM) | 8 µg/mL (≈ 33.6 µM) | > 32 µg/mL | 16 µg/mL (≈ 67.2 µM) | 16 µg/mL (≈ 67.2 µM) | 1.83 µg/mL (≈ 7.67 µM) | 8 µg/mL (≈ 33.6 µM)
